Test results taken from PubChem BioAssay (NCI).
“And” between values parts separate entries of the source, which are not always exact repeats. Equal entries are not always repeated.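 Assay format: 96-well plates, 48-hour exposure. At the GI50, growth is halved. TGI denotes the concentration required for complete inhibition of growth.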

Columns and labels:
Test in all cases: growth of human tumour cells (NCI), 48 h
MDA-MB-435 = tested on: MDA-MB-435
HCT-15 colon = tested on: HCT-15 colon
LOX IMVI melanoma = tested on: LOX IMVI melanoma
TK-10 renal = tested on: TK-10 renal
RXF 393 renal = tested on: RXF 393 renal
MALME-3M melanoma = tested on: MALME-3M melanoma
M14 melanoma = tested on: M14 melanoma
OVCAR-8 ovarian = tested on: OVCAR-8 ovarian
A549 NSCLC = tested on: A549 NSCLC
HT29 colon = tested on: HT29 colon

Row | SMILES | GI50 (MDA-MB-435) | TGI (MDA-MB-435) | GI50 (HCT-15 colon) [µM] | TGI (HCT-15 colon) | GI50 (LOX IMVI melanoma) [µM] | TGI (LOX IMVI melanoma) | GI50 (TK-10 renal) [µM] | TGI (TK-10 renal) | GI50 (RXF 393 renal) [µM] | TGI (RXF 393 renal) [µM] | GI50 (MALME-3M melanoma) [µM] | TGI (MALME-3M melanoma) | GI50 (M14 melanoma) | TGI (M14 melanoma) | GI50 (OVCAR-8 ovarian) [µM] | TGI (OVCAR-8 ovarian) | TGI (A549 NSCLC) | TGI (HT29 colon)
1 | CNC(=O)c1cc(Oc2ccc3nc(NC(=O)Nc4ccc(Cl)c(Cl)c4)sc3c2)ccn1 | 2.02 µM | 4.62 µM | 3.71 | > 100 µM | 1.82 | 3.52 µM | 3.46 | 9.26 µM | 1.84 | 3.65 | 1.51 | 3.3 µM | 2.13 µM | 4.74 µM | 2.36 | 5.27 µM |  | 
2 | CC(C)=CC(=O)Cc1nc2ccccc2[nH]c1=O |  |  |  | > 100 µM |  | > 100 µM |  | > 100 µM |  | 79.2 |  | > 100 µM |  | > 100 µM |  |  | > 100 µM | > 100 µM
3 | O=C(Nc1ccc(C(F)(F)F)cc1[N+](=O)[O-])C(=O)C(C(=O)c1ccc2ccccc2c1)C1OC(=O)c2ccccc21 (stereo not given) |  |  |  | 51.4 µM |  | 24.1 µM |  | 35 µM |  | 10.1 |  | 25.8 µM |  | 28.1 µM |  | 19.8 µM | > 71.3 µM | 23.9 µM
4 | CC1(C)OC2C(CO)OC(n3ccc(=O)[nH]c3=O)C2O1 (stereo not given) |  | > 100 µM |  | > 100 µM |  | > 100 µM |  | > 100 µM |  | > 100 |  |  |  | > 100 µM |  | > 100 µM | > 100 µM | 
5 | Cc1cc2c(cn1)C(=O)OCC2 |  |  |  |  |  | > 100 µM |  | > 100 µM |  | > 100 |  | > 100 µM |  | > 100 µM |  | > 100 µM | > 100 µM | > 100 µM
6 | CCOC(=O)/C(C#N)=C(O)/C(=C/c1ccccc1Cl)NC(=O)c1ccccc1 |  |  |  | > 100 µM |  |  |  | > 100 µM |  |  |  | > 100 µM |  | > 100 µM |  | > 100 µM | > 100 µM | > 100 µM
7 | CCc1ccccc1NC(=O)CCc1nc(=S)[nH][nH]1 |  |  |  | > 100 µM |  | > 100 µM |  | > 100 µM |  | > 100 |  | > 100 µM |  | > 100 µM |  | > 100 µM | > 100 µM | > 100 µM
8 | O=C(CC(=O)Nc1ccc(Cl)cc1)NNCC(=O)Nc1nc(-c2ccccc2)cs1 |  |  |  |  |  | > 100 µM |  | > 100 µM |  | > 100 |  |  |  | > 100 µM |  | > 100 µM | > 100 µM | > 100 µM
9 | CCCCCCC(C)CC(CCCCCC)NCCOC(=O)c1ccc([N+](=O)[O-])cc1 (stereo not given) | 11.6 µM and 5.17 µM | 24.9 µM and 20.1 µM |  | 33.1 µM and 26.7 µM |  | 24.7 µM and 19.5 µM |  | 24.5 µM and 23.4 µM |  |  |  | 28 µM and 25.7 µM | 12.4 µM and 4.53 µM | 28.4 µM and 17.7 µM |  | 22.1 µM and 19.7 µM | 30.3 µM and 29.8 µM | 21.4 µM and 19 µM
10 | Cc1cc2c(C(C)C)c(O)c(O)c3coc(/c1=c1/c(C)cc4c(C(C)C)c(=O)c(=O)c5coc1c45)c32 |  |  |  | 15.6 µM |  | 18 µM |  | 27.8 µM |  | 23.1 |  | 29.1 µM |  | 25.5 µM |  | 17.1 µM | 15.6 µM | 14.4 µM
11 | O=c1c2cc(Br)ccc2oc2ccc(Br)cc12 |  | > 100 µM |  | > 100 µM |  |  |  | > 100 µM |  | > 100 |  | > 100 µM |  | > 100 µM |  | > 100 µM | > 100 µM | > 100 µM
12 | CN1C(c2ccccc2)CC(=Nc2ccccc2)CC1c1ccccc1 (stereo not given) |  |  |  | 29.9 µM |  | 16.8 µM |  | 36.9 µM |  | 31.4 |  | 22.9 µM |  | 27.9 µM |  | 20.6 µM | 44.9 µM | 34.2 µM
